# Data: PMC12566046, “Arylpiperazinyl-Benzocycloheptapyrrole-Carboxamides Endowed with Dual Anticancer and Antiviral Activities” (Molecules, 2025)
# Columns and labels:
# NCI-60 cell line panel = assay: NCI-60 single-dose assay, whole panel; assay type: cell-based, human; conditions: summary over the panel
# Method in brief: (§1)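 Human cancer lines from nine tumour types in the NCI-60 panel were exposed to one compound dose, and cytotoxic activity was recorded for each line.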
# [1] = system: K-562 (leukemia cell line); assay: NCI-60 single-dose assay; assay type: cell-based; conditions: Homo sapiens, K562, read-out: growth inhibition (GI%) and cytotoxicity (negative values)
# Text: We first evaluated the cytotoxic activity of tricyclic-pyrrole carboxamides 1–20 using the NCI-60 cell line panel, representing nine different human cancers: leukemia, melanoma, and cancers of the lung, colon, central nervous system (CNS), ovary, kidney, prostate, and breast (the one-dose graph for compounds 1–20 is reported in Supplementary Materials, Figures S43–S62). Compounds 1, 5, 10, 11, 17, and 20 satisfied pre-determined threshold inhibition criteria in a minimum number of cell lines; therefore, they were also tested in the full five-dose assay (Figures S63–S68 in the Supplementary Materials).
# [2] = system: RXF 393 (renal cancer cell line); assay: NCI-60 single-dose assay; assay type: cell-based, human; conditions: Homo sapiens, RXF 393, read-out: growth inhibition (GI%) and cytotoxicity (negative values)
# Method in brief: as §1
# [3] = system: MALME-3M (melanoma cell line); assay: NCI-60 single-dose assay; assay type: cell-based, human; conditions: Homo sapiens, Malme-3M, read-out: growth inhibition (GI%) and cytotoxicity (negative values)
# Method in brief: as §1
# [4] = system: HT29 (colon cancer cell line); assay: NCI-60 single-dose assay; assay type: cell-based, human; conditions: human
# Method in brief: as §1
# [5] = system: UACC-257 (melanoma cell line); assay: NCI-60 single-dose assay; assay type: cell-based, human; conditions: Homo sapiens, UACC-257, read-out: growth inhibition (GI%) and cytotoxicity (negative values)
# Method in brief: as §1
# [6] = system: NCI-H460 (non-small cell lung cancer cell line); assay: NCI-60 single-dose assay; assay type: cell-based, human; conditions: Homo sapiens, NCI-H460, read-out: growth inhibition (GI%) and cytotoxicity (negative values)
# Method in brief: as §1
# [7] = system: NCI-H522 (non-small cell lung cancer cell line); assay: NCI-60 single-dose assay; assay type: cell-based, human; conditions: Homo sapiens, NCI-H522, read-out: growth inhibition (GI%) and cytotoxicity (negative values)
# Method in brief: as §1
# [8] = system: HCT-116 (colon cancer cell line); assay: NCI-60 single-dose assay; assay type: cell-based, human; conditions: Homo sapiens, HCT-116, read-out: growth inhibition (GI%) and cytotoxicity (negative values)
# Method in brief: as §1
# [9] = system: COLO 205 (colon cancer cell line); assay: NCI-60 single-dose assay; assay type: cell-based, human; conditions: human
# Method in brief: as §1
# [10] = system: SK-MEL-28 (melanoma cell line); assay: NCI-60 single-dose assay; assay type: cell-based, human; conditions: Homo sapiens, SK-MEL-28, read-out: growth inhibition (GI%) and cytotoxicity (negative values)
# Method in brief: as §1
# [11] = system: MDA-MB-435 (melanoma cell line); assay: NCI-60 single-dose assay; assay type: cell-based, human; conditions: Homo sapiens, MDA-MB-435, read-out: growth inhibition (GI%) and cytotoxicity (negative values)
# Method in brief: as §1
# [12] = system: CAKI-1 (renal cancer cell line); assay: NCI-60 single-dose assay; assay type: cell-based, human; conditions: Homo sapiens, CAKI-1, read-out: growth inhibition (GI%) and cytotoxicity (negative values)
# Method in brief: as §1
# [13] = system: SK-MEL-2 (melanoma cell line); assay: NCI-60 single-dose assay; assay type: cell-based, human; conditions: Homo sapiens, SK-MEL-2, read-out: growth inhibition (GI%) and cytotoxicity (negative values)
# Method in brief: as §1
# [14] = system: NCI-H226 (non-small cell lung cancer cell line); assay: NCI-60 single-dose assay; assay type: cell-based, human; conditions: Homo sapiens, NCI-H226, read-out: growth inhibition (GI%) and cytotoxicity (negative values)
# Method in brief: as §1
# [15] = system: HCC-2998 (colon cancer cell line); assay: NCI-60 single-dose assay; assay type: cell-based, human; conditions: Homo sapiens, HCC 2998, read-out: growth inhibition (GI%) and cytotoxicity (negative values)
# Method in brief: as §1
# [16] = system: SN12C (renal cancer cell line); assay: NCI-60 single-dose assay; assay type: cell-based, human; conditions: Homo sapiens, read-out: growth inhibition (GI%) and cytotoxicity (negative values)
# Method in brief: as §1
# [17] = system: NCI-H23 (non-small cell lung cancer cell line); assay: NCI-60 single-dose assay; assay type: cell-based, human; conditions: Homo sapiens, NCI-H23, read-out: growth inhibition (GI%) and cytotoxicity (negative values)
# Method in brief: as §1
# [18] = system: EKVX (non-small cell lung cancer cell line); assay: NCI-60 single-dose assay; assay type: cell-based, human; conditions: Homo sapiens, read-out: growth inhibition (GI%) and cytotoxicity (negative values)
# Method in brief: as §1
# [19] = system: UO-31 (renal cancer cell line); assay: NCI-60 single-dose assay; assay type: cell-based, human; conditions: Homo sapiens, UO-31, read-out: growth inhibition (GI%) and cytotoxicity (negative values)
# Method in brief: as §1
# [20] = system: LOX IMVI (melanoma cell line); assay: NCI-60 single-dose assay; assay type: cell-based, human; conditions: Homo sapiens, LOX IMVI, read-out: growth inhibition (GI%) and cytotoxicity (negative values)
# Method in brief: as §1
# [21] = system: UACC-62 (melanoma cell line); assay: NCI-60 single-dose assay; assay type: cell-based, human; conditions: Homo sapiens, UACC-62, read-out: growth inhibition (GI%) and cytotoxicity (negative values)
# Method in brief: as §1
# [22] = system: SW-620 (colon cancer cell line); assay: NCI-60 single-dose assay; assay type: cell-based, human; conditions: Homo sapiens, SW-620, read-out: growth inhibition (GI%) and cytotoxicity (negative values)
# Method in brief: as §1
# [23] = system: RPMI-8226 (leukemia cell line); assay: NCI-60 single-dose assay; assay type: cell-based, human; conditions: Homo sapiens, RPMI-8226, read-out: growth inhibition (GI%) and cytotoxicity (negative values)
# Method in brief: as §1
# SR (leukemia cell line) = assay: NCI-60 single-dose assay; assay type: cell-based, human; conditions: Homo sapiens, read-out: growth inhibition (GI%) and cytotoxicity (negative values)
# Method in brief: as §1
# [24] = system: CCRF-CEM (leukemia cell line); assay: NCI-60 single-dose assay; assay type: cell-based, human; conditions: Homo sapiens, read-out: growth inhibition (GI%) and cytotoxicity (negative values)
# Method in brief: as §1
# [25] = system: HCT-15 (colon cancer cell line); assay: NCI-60 single-dose assay; assay type: cell-based, human; conditions: Homo sapiens, HCT-15, read-out: growth inhibition (GI%) and cytotoxicity (negative values)
# Method in brief: as §1
# [26] = system: KM12 (colon cancer cell line); assay: NCI-60 single-dose assay; assay type: cell-based, human; conditions: Homo sapiens, KM12, read-out: growth inhibition (GI%) and cytotoxicity (negative values)
# Method in brief: as §1
# [27] = system: HL-60(TB) (leukemia cell line); assay: NCI-60 single-dose assay; assay type: cell-based, human; conditions: human
# [28] = system: 786-0 (renal cancer cell line); assay: NCI-60 single-dose assay; assay type: cell-based, human; conditions: Homo sapiens, 786-0, read-out: growth inhibition (GI%) and cytotoxicity (negative values)
# Method in brief: as §1
# M14 (melanoma cell line) = assay: NCI-60 single-dose assay; assay type: cell-based, human; conditions: human
# Method in brief: as §1
smiles,measurement,setting,value
COc1ccccc1N1CCN(CCNC(=O)c2[nH]c3c(c2Cl)CCCc2ccccc2-3)CC1 [Compound 5],growth inhibition (GI%) reached against cancer cell lines of the NCI-60 panel,NCI-60 cell line panel,> 90%
same,inhibition at 10 µM,[1],95.8%
same,inhibition at 10 µM,[2],89.4%
same,inhibition at 10 µM,[3],< 60%
same,growth inhibition (GI%) and cytotoxicity (negative values),[4],−17.44%
same,inhibition at 10 µM,[5],< 60%
same,inhibition at 10 µM,[6],79.2%
same,inhibition at 10 µM,[7],85.5%
same,inhibition at 10 µM,[8],94.6%
same,growth inhibition (GI%) and cytotoxicity (negative values),[9],−48.74%
same,inhibition at 10 µM,[10],< 60%
same,inhibition at 10 µM,[11],61.8%
same,inhibition at 10 µM,[12],77.9%
same,inhibition at 10 µM,[13],< 60%
same,inhibition at 10 µM,[14],< 60%
same,inhibition at 10 µM,[15],< 60%
same,inhibition at 10 µM,[16],71.8%
same,inhibition at 10 µM,[17],62.2%
same,inhibition at 10 µM,[18],94.2%
same,inhibition at 10 µM,[19],70%
same,inhibition at 10 µM,[20],82.8%
same,inhibition at 10 µM,[21],< 60%
same,inhibition at 10 µM,[22],67.4%
same,inhibition at 10 µM,[23],< 60%
same,inhibition at 10 µM,SR (leukemia cell line),90.1%
same,inhibition at 10 µM,[24],71.6%
same,inhibition at 10 µM,[25],92.5%
same,inhibition at 10 µM,[26],67.7%
same,growth inhibition (GI%) and cytotoxicity (negative values),[27],−8.91%
same,inhibition at 10 µM,[28],63%
same,growth inhibition (GI%) and cytotoxicity (negative values),M14 (melanoma cell line),−22.16%
